From PMC10518255, “A first-in-class pan-lysyl oxidase inhibitor impairs stromal remodeling and enhances gemcitabine response and survival in pancreatic cancer” (Nature Cancer, 2023)
Values joined by “and” are separate entries in the source; they are usually repeats but may differ in a detail not shown here. Equal values may be shown once.

Legend:
[1] = test system: KPC mouse model of PDAC; assay: Overt metastatic lesions observed during necropsy, KPC survival study; format: in vivo; conditions: for Ascites / overt metastatic lesions, Diaphragm / overt metastatic lesions, Liver / overt metastatic lesions, Lungs / overt metastatic lesions, Small intestine: KPC mice
Experimental: Fig. 4 PXS-5505 administered in a KPC in vivo survival study. a, Schematic of the KPC in vivo survival study. Presence of a primary tumor in KPC mice was confirmed by two independent researchers (positive diagnosis) before commencement of daily treatment (Tx) on one of four treatment arms as follows: vehicle, 0.9% saline; Gem, twice-weekly gemcitabine (100 mg kg^−1 i.p.); PXS-5505, daily PXS-5505 at 20 mg kg^−1 i.p.; and PXS-5505 + Gem, daily PXS-5505 at 20 mg kg^−1 i.p. + twice-weekly gemcitabine (100 mg kg^−1 i.p.). b, Table of median survival (since diagnosis/commencement of treatment) across the four treatment groups (n = 30 biologically independent animals (vehicle), n = 31 biologically independent animals (Gem), n = 36 biologically independent animals (PXS-5505), n = 46 biologically independent animals (PXS-5505 + Gem)). c, Kaplan–Meier curves for overall survival across treatment arms (n = 30 biologically independent animals (vehicle), n = 31 biologically independent animals (Gem), n = 36 biologically independent animals (PXS-5505), n = 46 biologically independent animals (PXS-5505 + Gem)). P values determined by log-rank (Mantel–Cox) test. d, Representative maximum intensity projections of SHG multiphoton imaging for tumors from each treatment group (n = 1 FOV taken from one biologically independent animal per group) at end point (scale bars, 100 μm) and quantification of SHG peak signal intensity (n = 5 biologically independent animals per group and five FOV per animal). Data are mean ± s.d. […] Quantification of metastases (n = 18 biologically independent animals (vehicle), n = 18 biologically independent animals (Gem), n = 17 biologically independent animals (PXS-5505), n = 15 biologically independent animals (PXS-5505 + Gem)). Data are mean ± s.d.
We quantified presence of overt metastatic dissemination to organs across the different treatment groups (Fig. 4f).
For the KPC autochthonous model, gemcitabine HCl (Jomar Life Research) or vehicle control (0.9% saline) was administered by i.p. injection twice weekly (100 mg kg^−1 in saline) on day 2 and 4 of the treatment cycle until the end point was reached. GLP-grade PXS-5505 (20 mg kg^−1 in saline) or vehicle (0.9% saline) was administered daily by i.p. injection. Treatment of mice was initiated upon detection of a palpable tumor, verified by two independent researchers and monitoring of mice continued daily until the experimental end point. End points were defined as development of ascites, overnight weight loss >10% of body weight, hunching posture and/or signs of distress and/or suffering, total weight loss ≥20% from maximum body weight or tumor interfering with mobility and access to food and water. The maximal tumor burden allowed by ethics was not exceeded. At the end point, primary tumors and secondary metastatic organs (including liver, small intestine, diaphragm and lungs) were collected and samples were taken for formalin fixation overnight, unconfined compression analysis and snap-frozen for tissue banking. Fixed tissues were processed according to standard histology protocols and paraffin-embedded.

[2] = test system: KPC PDAC tumors; assay: Tumor weight at end point, KPC survival study; format: in vivo, mouse; conditions: Extended Data 5B; KPC tumours; individual animals
Description: Treatment of KPC mice with gemcitabine led to a slowing of primary tumor progression, increasing survival from a median survival of 85 days in untreated mice to 125 days in gemcitabine-treated mice (P = 0.0005) (Fig. 4b,c, blue versus red). PXS-5505 as a monotherapy led to no changes in median survival compared to vehicle (85 versus 81 days) (Fig. 4c, blue versus green).
Extended Data Fig. 5 PXS-5505 in combination with gemcitabine in vivo. a. […] Signal is defined as the enzyme activity in the aorta, while noise is measured in the presence of a high concentration (300 µM) BAPN to abolish any lysyl oxidase family activity. […] Data presented as mean values +/− SD b. […] Data presented as mean values +/− SD. c. FITC-dextran (molecular weight: 10 kDa) signal quantification from KPC tumor end point from each treatment group (vehicle n = 3 biologically independent animals, PXS-5505 n = 5 biologically independent animals, Gem n = 5 biologically independent animals, PXS-5505 + Gem n = 5 biologically independent animals). 4 ROIs taken per mouse. P-values determined by Welchs t-test. […] Quantification of red birefringent (mature) collagen fibers from human PDXs at end point after 3 cycles of treatment, treated as indicated. […] P values determined by Welchs t-test. g. […] Quantification of green birefringent (nascent) collagen fibers from human PDXs at end point, treated as indicated. […]

Structure (SMILES) | Ascites (number of mice) [1] | overt metastatic lesions, Diaphragm (number of mice) [1] | overt metastatic lesions, Liver (number of mice) [1] | overt metastatic lesions, Lungs (number of mice) [1] | overt metastatic lesions, Small intestine (number of mice) [1] | Ascites [1] [%] | overt metastatic lesions, Diaphragm [1] [%] | overt metastatic lesions, Liver [1] [%] | overt metastatic lesions, Lungs [1] [%] | overt metastatic lesions, Small intestine [1] [%] | Tumour weight at endpoint [2]
Nc1ccn([C@@H]2O[C@H](CO)[C@@H](O)C2(F)F)c(=O)n1 [Gem, gemcitabine] | 1/20 | 3/20 | 3/20 | 5/20 | 9/20 | 5 | 15 | 15 | 25 | 45 | 0.28 grams and 0.51 grams and 0.6 grams and 0.69 grams and 0.41 grams and 0.462 grams and 0.3 grams and 0.26 grams and 0.37 grams and 1.42 grams and 0.75 grams and 0.63 grams and 1.2 grams and 0.7 grams and 0.4 grams
Cl.Cl.NC/C=C(\F)CS(=O)(=O)c1cccc2cccnc12.O [PXS-5505, (Z)-3-fluoro-4-(quinolin-8-ylsulfonyl)but-2-en-1-amine dihydrochloride monohydrate] | 3/23 | 2/23 | 3/23 | 2/23 | 8/23 | 13 | 9 | 13 | 9 | 35 | 0.55 grams and 0.54 grams and 0.19 grams and 0.83 grams and 0.33 grams and 1.18 grams and 0.43 grams and 0.96 grams and 1.94 grams and 0.78 grams and 1.16 grams and 1.34 grams and 0.68 grams and 0.3 grams and 1.3 grams and 0.5 grams and 0.8 grams
